Measurements as given in patent US4438031A, “N-(Alkylsulfonyl)-L-proline amide and N-(alkylsulfonyl)-2-carboxylic acid amide-indoline derivatives” (American Home Products Corporation, priority 1982, dated 1984).
Where a name gives a salt, the structure may show the parent alone.

Tests used:
[1] = oral administration; cited from earlier work
[2] = molecular target: T1, angiotensin converting enzyme (Oryctolagus cuniculus, UniProt P12822); assay: in vitro angiotensin converting enzyme (ACE) inhibition, rabbit lung extract, substrate hippuryl-L-histidyl-L-leucine (Cushman et al.); assay type: biochemical
T1 construct: The in vitro assay utilizes rabbit lung extract; from tissue; host or cells: rabbit lung extract
T1 sequence (P12822 34-1310): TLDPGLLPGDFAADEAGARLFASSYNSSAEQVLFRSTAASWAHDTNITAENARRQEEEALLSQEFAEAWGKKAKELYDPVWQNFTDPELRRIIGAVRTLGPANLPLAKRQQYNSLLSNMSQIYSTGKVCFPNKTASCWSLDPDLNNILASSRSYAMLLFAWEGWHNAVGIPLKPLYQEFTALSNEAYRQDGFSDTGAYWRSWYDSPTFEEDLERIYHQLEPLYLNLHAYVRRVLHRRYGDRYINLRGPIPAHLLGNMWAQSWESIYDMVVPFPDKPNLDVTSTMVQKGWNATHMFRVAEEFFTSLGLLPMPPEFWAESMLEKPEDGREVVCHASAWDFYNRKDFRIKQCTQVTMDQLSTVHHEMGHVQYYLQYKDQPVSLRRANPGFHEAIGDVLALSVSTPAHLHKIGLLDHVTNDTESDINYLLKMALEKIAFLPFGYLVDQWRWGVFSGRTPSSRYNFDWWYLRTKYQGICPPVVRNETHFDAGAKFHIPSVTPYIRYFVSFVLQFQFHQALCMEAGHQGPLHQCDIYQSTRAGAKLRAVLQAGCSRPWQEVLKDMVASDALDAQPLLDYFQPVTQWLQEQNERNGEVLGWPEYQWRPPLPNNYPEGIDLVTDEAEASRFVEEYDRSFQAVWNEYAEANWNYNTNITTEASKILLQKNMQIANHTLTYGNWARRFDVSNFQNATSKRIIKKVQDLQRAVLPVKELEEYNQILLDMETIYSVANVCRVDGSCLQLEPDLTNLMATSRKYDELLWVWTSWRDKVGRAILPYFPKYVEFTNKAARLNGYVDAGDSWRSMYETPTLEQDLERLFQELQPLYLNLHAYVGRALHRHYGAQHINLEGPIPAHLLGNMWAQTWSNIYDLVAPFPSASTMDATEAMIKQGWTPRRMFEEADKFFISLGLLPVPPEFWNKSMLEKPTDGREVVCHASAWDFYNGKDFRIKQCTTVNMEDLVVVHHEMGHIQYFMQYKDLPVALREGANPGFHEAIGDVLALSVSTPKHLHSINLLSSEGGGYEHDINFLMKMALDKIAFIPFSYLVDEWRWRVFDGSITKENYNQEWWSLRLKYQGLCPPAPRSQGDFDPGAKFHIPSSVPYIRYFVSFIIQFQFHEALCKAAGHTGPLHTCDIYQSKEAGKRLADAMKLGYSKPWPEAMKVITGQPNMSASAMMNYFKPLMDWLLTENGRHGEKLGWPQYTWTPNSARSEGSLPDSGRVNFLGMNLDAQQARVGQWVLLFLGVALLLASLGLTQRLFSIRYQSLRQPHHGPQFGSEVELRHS
Procedure: The angiotensin converting enzyme (ACE) inhibitory property of the compounds is measured in vitro and in vivo. The in vitro assay utilizes rabbit lung extract and a specific tripeptide substrate, hippuryl-L-histidyl-L-leucine being preferred, and follows the method of Cushman et al., Biochem. Pharmacol, 20, 1637-1648 (1971).

[3] = humans with certain forms of hypertension; cited from earlier work

| inhibition at 1 µg/mL ([2]; concentration 1000 ng/ml) [%] | inhibition at 0.05 µg/mL ([2]; concentration 50 ng/ml) [%] | Compound | oral activity as an anti-hypertensive agent [1] | further results |
| --- | --- | --- | --- | --- |
| 80 |  | C[C@H](CSC(=O)c1ccccc1)C(=O)N1CCC[C@H]1C(=O)NS(C)(=O)=O [Example 1, Benzenecarbothioic Acid S-[(2S)-2-Methyl-3-[(2S)-2-[(Methylsulfonylamino)Carbonyl]-1-Pyrrolidinyl]-3-Oxopropyl]Ester, Dicyclohexylamine Salt] |  | inhibition at 0.1 µg/mL ([2]; concentration 100 ng/ml): 35 to 38%; inhibition of angiotensin converting enzyme ([2]; concentration 100 ng/ml, listed as Example 2): 35-38% |
| 89 to 92 | 32 | C[C@H](CS)C(=O)N1CCC[C@H]1C(=O)NS(C)(=O)=O [Example 4, (S)-1-[(2S)-3-Mercapto-2-Methyl-1-Oxopropyl]-N-(Methylsulfonyl)-2-Pyrrolidinecarboxamide] |  | inhibition of angiotensin converting enzyme ([2]; concentration 50 ng/ml): 50-57% |

The remaining lines, values behind:

| Compound | inhibition at 1 µg/mL ([2]; concentration 1000 ng/ml) [%] | inhibition at 0.05 µg/mL ([2]; concentration 50 ng/ml) [%] | oral activity as an anti-hypertensive agent [1] | further results |
| --- | --- | --- | --- | --- |
| C[C@H](CS)C(=O)N1CCCC1C(=O)O (stereo in doubt) [D-3-mercapto-2-methylpropanoyl-L-proline] |  |  | effective when administered orally |  |
| C[C@H](CSC(=O)c1ccccc1)C(=O)N1CCC[C@H]1C(=O)NS(C)(=O)=O [Example 3, Benzenecarbothioic Acid S-[(2S)-2-Methyl-3-[(2S)-2-[(Methylsulfonylamino)Carbonyl]-1-Pyrrolidinyl]-3-Oxopropyl]Ester] |  | 14 to 21 |  | inhibition of angiotensin converting enzyme ([2]; concentration 100 ng/ml): 31-37%; inhibition of angiotensin converting enzyme ([2]; concentration 1000 ng/ml): 76-80% |
| Pyr-Trp-Pro-Arg-Pro-Gln-Ile-Pro-Pro (WPRPQIPP; N-terminal pyroglutamyl; printed: Trp-Pro-Arg-Pro-Gln-Ile-Pro-Pro) [BPP9a] |  |  | not orally active | anti-hypertensive effect in clinical studies [3]: effective anti-hypertensive agent |
